Experimental data reported in patent US20210069213A1, “COMPOSITION AND METHOD OF TREATMENT FOR DRY A.M.D. (AGE RELATED MACULAR DEGENERATION)” (EYE CO PTY LTD, priority 2018, published 2021).
“Also recorded” adds a separate entry of the source.

Columns and labels:
[1] = target: T1, mineralocorticoid receptor (Homo sapiens, UniProt P08235); details: Table 1; hydrocortisone (cortisol) = 1; cited from earlier work
T1 sequence (P08235 1-984): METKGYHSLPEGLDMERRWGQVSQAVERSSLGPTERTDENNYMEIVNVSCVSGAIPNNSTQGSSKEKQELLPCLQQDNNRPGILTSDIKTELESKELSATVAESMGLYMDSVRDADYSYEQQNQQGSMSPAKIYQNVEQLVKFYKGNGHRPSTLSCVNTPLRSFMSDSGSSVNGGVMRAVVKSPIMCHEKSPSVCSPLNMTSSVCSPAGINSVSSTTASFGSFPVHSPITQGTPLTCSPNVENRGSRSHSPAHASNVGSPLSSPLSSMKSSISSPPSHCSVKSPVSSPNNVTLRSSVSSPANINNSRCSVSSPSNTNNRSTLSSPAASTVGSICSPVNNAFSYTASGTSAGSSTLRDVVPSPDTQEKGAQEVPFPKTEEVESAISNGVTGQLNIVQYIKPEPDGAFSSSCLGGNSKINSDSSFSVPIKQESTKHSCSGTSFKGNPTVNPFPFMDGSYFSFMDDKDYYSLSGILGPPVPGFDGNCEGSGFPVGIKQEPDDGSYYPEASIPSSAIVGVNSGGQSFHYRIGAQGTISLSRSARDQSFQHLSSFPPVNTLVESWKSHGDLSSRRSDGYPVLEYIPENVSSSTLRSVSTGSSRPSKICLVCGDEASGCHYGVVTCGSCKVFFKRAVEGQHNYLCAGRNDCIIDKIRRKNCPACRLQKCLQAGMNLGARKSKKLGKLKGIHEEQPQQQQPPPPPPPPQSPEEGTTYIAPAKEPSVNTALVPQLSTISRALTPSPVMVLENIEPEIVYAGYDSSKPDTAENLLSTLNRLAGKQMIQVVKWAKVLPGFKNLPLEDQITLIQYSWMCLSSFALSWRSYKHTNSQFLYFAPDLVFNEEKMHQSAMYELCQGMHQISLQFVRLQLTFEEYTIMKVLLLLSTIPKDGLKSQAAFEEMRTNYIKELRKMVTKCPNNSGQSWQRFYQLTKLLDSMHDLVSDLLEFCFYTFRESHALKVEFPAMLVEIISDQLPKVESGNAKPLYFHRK

[2] = tested on: Sprague-Dawley rats exposed to bright continuous light; assay: Light damage (photo-oxidative damage) model of dry AMD, corticosteroid treatment vs vehicle; type: in vivo; details: after photo-oxidative damage; FA compared with TA; listed as FA
Procedure: All experiments conducted were in accordance with the ARVO Statement for the Use of Animals in Ophthalmic and Vision Research. Albino Sprague-Dawley (SD) rats aged from […] were exposed to bright continuous light (BCL) at 1000 lux. The rats were born and reared in dim cyclic light conditions (12 h light:12 h dark) with an ambient light level of approximately 5 lux. Exposure to BCL was conducted on animals aged between post-natal days (P) 90-150. Prior to BCL exposure, rats were dark adapted for a minimum of 15 h then transferred to individual cages designed to allow light to enter unimpeded. There were no areas of shadow in the cages; pupillary dilation was not performed. BCL exposure commenced consistently at 9:00 am, and was achieved using a cold-white fluorescent light source positioned above the cages (18 W, Cool White; TFC), at an intensity of approximately 1000 lux at the cage floor. BCL exposure was maintained over a period of 24 h, after which time the animals were immediately returned to dim cyclic conditions for the post-exposure period.
Age-matched, dim-reared animals served as control samples.
Animals were euthanatized by overdose of barbiturate administered by an intraperitoneal injection (60 mg/kg bodyweight; Valabarb; Virbac Animal Health, Regents Park, NSW, Australia).
Eyes were oriented and embedded in O.C.T. compound (Tissue-Tek, Sakura, Japan) then snap frozen in liquid nitrogen and cryosectioned at […] Retinas for RNA extraction were immediately deposited in RNA stabilizer (RNAlater; Ambion, Austin, Tex.), prechilled on ice, and stored according to the manufacturer's instructions. RNA was then extracted from each sample. The samples were incubated at 4° C. overnight to allow adequate penetration of the preservative, and then stored at […] until required. The samples were processed in batches encompassing the entire time course, to ensure comparability. […]
TUNEL labeling was used to quantify photoreceptor apoptosis in cryosections, during and after BCL, with a protocol published previously. […]

[3] = tested on: light-damage model of dry AMD; assay: Light-damage model of dry AMD in mice; type: in vivo
[4] = FA delivered in Kenalog vehicle, 7 days later

For `CC(=O)OCC(=O)[C@@]1(O)CC[C@H]2[C@@H]3CCC4=CC(=O)CC[C@]4(C)[C@@]3(F)[C@@H](O)C[C@@]21C` [Fludrocortisone acetate, 9-α-Fiuoro-11 β. 17 α, 21-trihydroxy-4-pregnene-3, 20 dione acetate], the MR potency [1] is given as 200, the “prevention of macrophage recruitment (IBA1)” value [2] is given as “more effective than TA; also recorded: superior” and the “prevention of photoreceptor death / cell death (TUNEL)” value [2] is given as “more effective than TA; also recorded: superior”. For the same molecule, the “retinal function (ERG, a- and b-wave amplitude)” value [2] was “preserves retinal function; also recorded: superior”, the cell death [3, 4] was “significantly less cell death” and the “macrophages that carry the IBA1 marker” value [3, 4] was “significantly fewer macrophages”. For the same molecule, the “Electroretinogram A-wave (Photoreceptor function) and B-wave (inner retinal function)” value ([3]; FA-treated animals) was “significantly more robust” and the “outer nuclear layer thickness (histology)” value ([3]; FA-treated animals) was “much thicker outer nuclear layer”.
